Assay results: patent publication US12617783B2, “Heterocyclic GLP-1R agonists” (BIOMEA FUSION, INC., priority 2024, dated 2026)
Like-named read-outs stand apart in the source and are kept apart here.

Target: T1, human GLP-1R (Homo sapiens, UniProt P43220)
T1 construct: host or cells: HEK293
Assay: GLP-1R cAMP assay (Example B1a, HTRF, 30 min at room temperature)
Format: cell-based
Details: for EC50: read-out: EC50; for potency: text to Table 1d, bridge atoms configured out of the plane or toward the reader
Summary of the method: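 Competitive HTRF read-out of cAMP after 30 min room-temperature stimulation, BETP absent, of human GLP-1R-HEK293 cells (1,000/well) in HEPES buffer with 500 μM IBMX and 0.1% BSA. Activation normalised to GLP-1(7-37) positive control. EC50 from 4-parameter non-linear regression.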

[1] = cAMP accumulation in HEK293 expressing human GLP-1R, no BETP, 30 min room temperature (Method B1a, compounds ID 1-609), Table 1

T1 sequence (P43220 24-463): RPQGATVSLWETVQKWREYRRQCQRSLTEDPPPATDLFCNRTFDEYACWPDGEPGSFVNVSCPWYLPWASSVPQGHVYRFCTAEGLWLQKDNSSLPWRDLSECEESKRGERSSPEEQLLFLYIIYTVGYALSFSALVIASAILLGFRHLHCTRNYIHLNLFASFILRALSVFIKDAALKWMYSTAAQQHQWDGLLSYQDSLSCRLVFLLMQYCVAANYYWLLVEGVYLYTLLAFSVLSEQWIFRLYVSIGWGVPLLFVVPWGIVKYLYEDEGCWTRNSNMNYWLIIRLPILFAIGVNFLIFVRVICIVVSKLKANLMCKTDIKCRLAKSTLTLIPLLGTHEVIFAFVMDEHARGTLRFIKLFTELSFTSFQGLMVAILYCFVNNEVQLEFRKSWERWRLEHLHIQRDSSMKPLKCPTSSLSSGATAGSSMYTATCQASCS

EC50 [1] | SMILES | EC50 (Table 1d, stereoisomer pairs) | potency
92.6 nM | Cc1cc(-n2nc3c(c2-n2ccn(-c4ccc5c(cnn5C)c4F)c2=O)C2CCC(C3)N2C(=O)c2cc3cc([C@H]4CCOC(C)(C)C4)ccc3n2[C@@]2(c3noc(=O)[nH]3)C[C@@H]2C)cc(C)c1F (stereo partly drawn) [Compound 32, 3-((1S,2S)-1-(5-((S)-2,2-dimethyltetrahydro-2H-pyran-4-yl)-2-(3-(3-(4-fluoro-1-methyl-1H-indazol-5-yl)-2-oxo-2,3-dihydro-1H-imidazol-1-yl)-2-(4-fluoro-3,5-dimethylphenyl)-2,4,5,6,7,8-hexahydro-4,7-epiminocyclohepta [c]pyrazole-9-carbonyl)-1H-indol-1-yl)-2-methylcyclopropyl)-1,2,4-oxadiazol-5 (4H)-one] |  | 
> 10000 nM | Cc1cc(-n2nc3c(c2-n2ccn(-c4ccc5c(cnn5C)c4F)c2=O)[C@@H]2CC[C@H](C3)N2C(=O)c2cc3ccc(C4CCOC(C)(C)C4)cc3nc2C2(c3noc(=O)[nH]3)CC2)cc(C)c1F (stereo partly drawn) [Compound 126, 3-[1-[7-(2,2-dimethyltetrahydropyran-4-yl)-3-[(1S,8R)-4-(4-fluoro-3,5-dimethyl-phenyl)-3-[3-(4-fluoro-1-methyl-indazol-5-yl)-2-oxo-imidazol-1-yl]-4,5,11-triazatricyclo[6.2.1.02,6]undeca-2,5-diene-11-carbonyl]-2-quinolyl]cyclopropyl]-4H-1,2,4-oxadiazol-5-one] |  | 
≥ 10000 nM | Cc1cc(-n2nc3c(c2-n2ccn(-c4ccc5c(cnn5C)c4F)c2=O)[C@H]2CC[C@@H](C3)N2C(=O)c2cc3cc([C@@H]4CCOC5(CC5)C4)ccc3n2[C@@]2(c3noc(=O)[nH]3)C[C@H]2C)cc(C)c1F [Compound 540, 3-((1S,2R)-1-(2-((4R,7S)-3-(3-(4-fluoro-1-methyl-1H-indazol-5-yl)-2-oxo-2,3-dihydro-1H-imidazol-1-yl)-2-(4-fluoro-3,5-dimethylphenyl)-2,4,5,6,7,8-hexahydro-4,7-epiminocyclohepta [c]pyrazole-9-carbonyl)-5-((R)-4-oxaspiro[2.5]octan-7-yl)-1H-indol-1-yl)-2-methylcyclopropyl)-1,2,4-oxadiazol-5 (4H)-one] |  | 
591 nM | Cc1cc(-n2nc3c(c2-c2nc(-c4ccc5c(cnn5C)c4F)cn2C)[C@H](C)N(C(=O)c2cc4cc([C@H]5CCOC(C)(C)C5)ccc4n2[C@@]2(c4noc(=O)[nH]4)C[C@@H]2C)CC3)cc(C)c1F [Compound 21, 3-((1S,2S)-1-(5-((S)-2,2-dimethyltetrahydro-2H-pyran-4-yl)-2-((S)-3-(4-(4-fluoro-1-methyl-1H-indazol-5-yl)-1-methyl-1H-imidazol-2-yl)-2-(4-fluoro-3,5-dimethylphenyl)-4-methyl-4,5,6,7-tetrahydro-2H-pyrazolo[4,3-c]pyridine-5-carbonyl)-1H-indol-1-yl)-2-methylcyclopropyl)-1,2,4-oxadiazol-5 (4H)-one] |  | 
390 nM | CNC(=O)[C@]1(n2c(C(=O)N3[C@@H]4CC[C@H]3c3c(nn(-c5cc(C)c(F)c(C)c5)c3-n3ccn(-c5ccc6c(cnn6C)c5F)c3=O)C4)cc3cc([C@H]4CCOC(C)(C)C4)ccc32)C[C@@H]1C [Compound 244, cis-(1S,2S)-1-[5-[(4S)-2,2-dimethyltetrahydropyran-4-yl]-2-[(1S,8R)-4-(4-fluoro-3,5-dimethyl-phenyl)-3-[3-(4-fluoro-1-methyl-indazol-5-yl)-2-oxo-imidazol-1-yl]-4,5,11-triazatricyclo[6.2.1.02,6]undeca-2,5-diene-11-carbonyl]indol-1-yl]-N,2-dimethyl-cyclopropanecarboxamide] |  | 
18.7 nM | Cc1cc(-n2nc3c(c2-n2ccn(-c4ccc5c(cnn5C)c4F)c2=O)[C@@H]2CC[C@H](C3)N2C(=O)c2cc3cc([C@H]4CCOC(C)(C)C4)cnc3n2[C@@]2(c3noc(=O)[nH]3)C[C@@H]2C)cc(C)c1F [Compound 313, 3-((1S,2S)-1-(5-((S)-2,2-dimethyltetrahydro-2H-pyran-4-yl)-2-((4S,7R)-3-(3-(4-fluoro-1-methyl-1H-indazol-5-yl)-2-oxo-2,3-dihydro-1H-imidazol-1-yl)-2-(4-fluoro-3,5-dimethylphenyl)-2,4,5,6,7,8-hexahydro-4,7-epiminocyclohepta [c]pyrazole-9-carbonyl)-1H-pyrrolo[2,3-b]pyridin-1-yl)-2-methylcyclopropyl)-1,2,4-oxadiazol-5 (4H)-one] |  | 
259 nM | COc1ccc(-n2ccn(-c3c4c(nn3-c3cc(C)c(F)c(C)c3)C[C@H]3CC[C@@H]4N3C(=O)c3cc4cc([C@H]5CCOC(C)(C)C5)ccc4n3[C@@]3(c4noc(=O)[nH]4)C[C@@H]3C)c2=O)cc1 [Compound 223, 3-[(1S,2S)-1-[5-[(4S)-2,2-dimethyltetrahydropyran-4-yl]-2-[(1S,8R)-4-(4-fluoro-3,5-dimethyl-phenyl)-3-[3-(4-methoxyphenyl)-2-oxo-imidazol-1-yl]-4,5,11-triazatricyclo[6.2.1.02,6]undeca-2,5-diene-11-carbonyl]indol-1-yl]-2-methyl-cyclopropyl]-4H-1,2,4-oxadiazol-5-one] |  | 
137 nM | Cc1cc(-n2nc3c(c2-n2ccn(-c4ccc5c(cnn5C)c4F)c2=O)[C@@H]2CC[C@H](C3)N2C(=O)c2cc3cc([C@H]4CCOC(C)(C)C4)ccc3n2[C@@]2(c3nnn[nH]3)C[C@@H]2C)cc(C)c1F [Compound 128, 1-((4S,7R)-9-(5-((S)-2,2-dimethyltetrahydro-2H-pyran-4-yl)-1-((1S,2S)-2-methyl-1-(1H-tetrazol-5-yl)cyclopropyl)-1H-indole-2-carbonyl)-2-(4-fluoro-3,5-dimethylphenyl)-2,4,5,6,7,8-hexahydro-4,7-epiminocyclohepta [c]pyrazol-3-yl)-3-(4-fluoro-1-methyl-1H-indazol-5-yl)-1H-imidazol-2 (3H)-one] |  | 
588 nM | Cc1cc(-n2nc3c(c2-n2ccn(-c4ccc5c(cnn5C)c4F)c2=O)C2CCC([C@H]3F)N2C(=O)c2cc3cc([C@H]4CCOC(C)(C)C4)ccc3n2[C@@]2(c3noc(=O)[nH]3)C[C@@H]2C)cc(C)c1F (stereo partly drawn) [Compound 511, 3-[(1S,2S)-1-[5-[(4S)-2,2-dimethyltetrahydropyran-4-yl]-2-[(7R)-7-fluoro-4-(4-fluoro-3,5-dimethyl-phenyl)-3-[3-(4-fluoro-1-methyl-indazol-5-yl)-2-oxo-imidazol-1-yl]-4,5,11-triazatricyclo[6.2.1.02,6]undeca-2,5-diene-11-carbonyl]indol-1-yl]-2-methyl-cyclopropyl]-4H-1,2,4-oxadiazol-5-one] |  | 
1770 nM | Cc1cc(-n2nc3c(c2-n2ccn(-c4ccc5c(cnn5C)c4F)c2=O)[C@@H]2CC[C@H](C3)N2C(=O)c2cc3cc(C4CCOC4(C)C)ccc3n2[C@@]2(c3noc(=O)[nH]3)C[C@@H]2C)cc(C)c1F (stereo partly drawn) [Compound 413, 3-[(1S,2S)-1-[5-(2,2-dimethyltetrahydrofuran-3-yl)-2-[(1S,8R)-4-(4-fluoro-3,5-dimethyl-phenyl)-3-[3-(4-fluoro-1-methyl-indazol-5-yl)-2-oxo-imidazol-1-yl]-4,5,11-triazatricyclo[6.2.1.02,6]undeca-2,5-diene-11-carbonyl]indol-1-yl]-2-methyl-cyclopropyl]-4H-1,2,4-oxadiazol-5-one] |  | 
≥ 10000 nM | Cc1cc(-n2nc3c(c2-n2ccn(-c4ccc5c(cnn5C)c4F)c2=O)[C@@H]2CCC[C@H](C3)N2S(=O)(=O)c2cc3cc([C@H]4CCOC5(CC5)C4)ccc3n2[C@@]2(c3noc(=O)[nH]3)C[C@@H]2C)cc(C)c1F [Compound 608, 3-[(1S,2S)-1-[2-[[(1S,8R)-4-(4-fluoro-3,5-dimethyl-phenyl)-3-[3-(4-fluoro-1-methyl-indazol-5-yl)-2-oxo-imidazol-1-yl]-4,5,12-triazatricyclo[6.3.1.02,6]dodeca-2,5-dien-12-yl]sulfonyl]-5-[(7S)-4-oxaspiro[2.5]octan-7-yl]indol-1-yl]-2-methyl-cyclopropyl]-4H-1,2,4-oxadiazol-5-one] |  | 
≥ 10000 nM | Cc1cc(-n2nc3c(c2-n2ccn(-c4ccc5c(cnn5C)c4F)c2=O)[C@H]2CC[C@@H](C3)N2C(=O)c2cc3cc([C@H]4CCOC5(CC5)C4)ccc3n2[C@]2(c3noc(=O)[nH]3)C[C@@H]2C)cc(C)c1F [Compound 531, 3-[(1R,2S)-1-[2-[(1R,8S)-4-(4-fluoro-3,5-dimethyl-phenyl)-3-[3-(4-fluoro-1-methyl-indazol-5-yl)-2-oxo-imidazol-1-yl]-4,5,11-triazatricyclo[6.2.1.02,6]undeca-2,5-diene-11-carbonyl]-5-[(7S)-4-oxaspiro[2.5]octan-7-yl]indol-1-yl]-2-methyl-cyclopropyl]-4H-1,2,4-oxadiazol-5-one] |  | 

SMILES | EC50 [1] | EC50 (Table 1d, stereoisomer pairs) | potency
Cc1cc(-n2nc3c(c2-n2ccn(-c4ccc5c(cnn5C)c4F)c2=O)[C@H]2COC[C@@H](C3)N2C(=O)c2cc3cc([C@H]4CCOC(C)(C)C4)ccc3n2[C@@]2(c3noc(=O)[nH]3)C[C@@H]2C)cc(C)c1F [Compound 120, 3-((1S,2S)-1-(5-((S)-2,2-dimethyltetrahydro-2H-pyran-4-yl)-2-((4S,8R)-3-(3-(4-fluoro-1-methyl-1H-indazol-5-yl)-2-oxo-2,3-dihydro-1H-imidazol-1-yl)-2-(4-fluoro-3,5-dimethylphenyl)-2,4,5,7,8,9-hexahydro-4,8-epiminooxocino [5,4-c]pyrazole-10-carbonyl)-1H-indol-1-yl)-2-methylcyclopropyl)-1,2,4-oxadiazol-5(4H)-one] | > 10000 nM | > 10000 nM | little or no potency
Cc1cc(-n2nc3c(c2-n2ccn(-c4ccc5c(cnn5C)c4F)c2=O)[C@H]2CC[C@@H]([C@H]3F)N2C(=O)c2cc3cc([C@H]4CCOC(C)(C)C4)ccc3n2[C@@]2(c3noc(=O)[nH]3)C[C@@H]2C)cc(C)c1F [Compound 514, 3-[(1S,2S)-1-[5-[(4S)-2,2-dimethyltetrahydropyran-4-yl]-2-[(1R,7R,8S)-7-fluoro-4-(4-fluoro-3,5-dimethyl-phenyl)-3-[3-(4-fluoro-1-methyl-indazol-5-yl)-2-oxo-imidazol-1-yl]-4,5,11-triazatricyclo[6.2.1.02,6]undeca-2,5-diene-11-carbonyl]indol-1-yl]-2-methyl-cyclopropyl]-4H-1,2,4-oxadiazol-5-one] | ≥ 10000 nM |  | little or no potency
